Results: US5792635A, “Method of inhibiting the sodium/proton exchanger NHE3 and method of inhibiting growth by administering squalamine” (priority 1995, dated 1998)
≈ marks a conversion by molar mass, not a printed value.

How the values were obtained:
[1] = test system: Xenopus tadpoles; assay: Tadpole assay; details: Xenopus tadpole assay
[2] = test system: C. albicans; assay: Antibiotic activity, MIC; assay type: cell-based; details: Candida albicans
[3] = test system: S. aureus; assay: Antibiotic activity, MIC; assay type: cell-based; details: Staphylococcus aureus
[4] = test system: E. Coli; assay: Antibiotic activity, MIC; assay type: cell-based; details: Escherichia coli
[5] = test system: chick embryo; assay: Chick embryo diss. assay (Table II); assay type: in vivo
Protocol: Using the chick embryo vitelline capillaries assay, compounds were tested for their ability to induce capillary regression. Each compound was applied in 0.1 ml of 15% Ficol 400 and PBS onto the embryo, and vascular regression was assessed after 60 minutes.

| SMILES | functional similarity in tadpole assay [1] | potency in tadpole assay relative to Fraction 1 [1] | MIC [2] | MIC [3] | MIC [4] | Minimum Effective Concentration, chick embryo diss. assay [5] |
| --- | --- | --- | --- | --- | --- | --- |
| COC(=O)CC[C@@H](C)[C@H]1CC[C@H]2[C@@H]3CC[C@H]4C[C@@H](NCCCNCCCCNCCCN)CC[C@]4(C)[C@H]3CC[C@]12C [Compound 459] | pharmacologic activity similar to that seen for FX 3 |  |  |  |  |  |
| COC(=O)CC[C@@H](C)[C@H]1CC[C@H]2[C@@H]3C[C@@H](O)[C@H]4C[C@H](NCCCNCCCCNCCCN)CC[C@]4(C)[C@H]3CC[C@]12C [Compound 465] | pharmacologic activity similar to that seen for FX 3 |  |  |  |  |  |
| COC(=O)CC[C@@H](C)[C@H]1CC[C@H]2[C@@H]3C[C@@H](O)[C@H]4C[C@@H](NCCCNCCCCNCCCN)CC[C@]4(C)[C@H]3CC[C@]12C [Compound 466] | pharmacologic activity similar to that seen for FX 3 |  |  |  |  |  |
| CC(C)CCC[C@@H](C)[C@H]1CC[C@H]2[C@@H]3[C@H](O)C[C@H]4C[C@H](N)CC[C@]4(C)[C@H]3CC[C@]12C [Compound 1363] | pharmacologic activity similar to Fraction 1 | potencies comparable to that of Fraction 1 |  |  |  |  |
| CC(C)CCCC(C)[C@H]1CCC2C3C(CC[C@@]21C)[C@@]1(C)CC[C@H](N)C[C@@H]1C[C@H]3O (stereo partly drawn) [drawing 55] |  |  | 2 µg/mL (≈ 4.95 µM) | 2 µg/mL (≈ 4.95 µM) | > 256 µg/mL |  |
| CC(C)CCCC(C)[C@H]1CCC2C3C(CC[C@@]21C)[C@@]1(C)CC[C@@H](NCCCNCCCCN)C[C@@H]1C[C@H]3O (stereo partly drawn) [drawing 56] |  |  | 2 µg/mL (≈ 3.76 µM) | 4 µg/mL (≈ 7.52 µM) | 32 µg/mL (≈ 60.2 µM) |  |
| CC(C)CCCC(C)[C@H]1CCC2C3C(CC[C@@]21C)[C@@]1(C)CC[C@H](NCCCNCCCCN)C[C@@H]1C[C@H]3O (stereo partly drawn) [drawing 57] |  |  | 2 µg/mL (≈ 3.76 µM) | 4 µg/mL (≈ 7.52 µM) | 64 µg/mL (≈ 120 µM) |  |
| COC(=O)CCC(C)[C@H]1CCC2C3C(CC[C@@]21C)[C@@]1(C)CC[C@H](NCCN)C[C@H]1C[C@H]3O (stereo partly drawn) [drawing 58] |  |  | 16 µg/mL (≈ 35.7 µM) | 32 µg/mL (≈ 71.3 µM) | 64 µg/mL (≈ 143 µM) |  |
| COC(=O)CCC(C)[C@H]1CCC2C3C(CC[C@@]21C)[C@@]1(C)CC[C@@H](NCCN)C[C@H]1C[C@H]3O (stereo partly drawn) [drawing 59] |  |  | 16 µg/mL (≈ 35.7 µM) | 16 µg/mL (≈ 35.7 µM) | 16 µg/mL (≈ 35.7 µM) |  |
| COC(=O)CCC(C)[C@H]1CCC2C3C(CC[C@@]21C)[C@@]1(C)CC[C@H](NCCCNCCCCNCCCN)C[C@H]1C[C@H]3O (stereo partly drawn) [drawing 60] |  |  | 2 µg/mL (≈ 3.38 µM) | 8 µg/mL (≈ 13.5 µM) | 64 µg/mL (≈ 108 µM) |  |
| CC(CCC(=O)O)[C@H]1CCC2C3C(CC[C@@]21C)[C@@]1(C)CC[C@@H](NCCCNCCCCNCCCN)C[C@H]1C[C@H]3O (stereo partly drawn) [drawing 61] |  |  | 8 µg/mL (≈ 13.9 µM) | 8 µg/mL (≈ 13.9 µM) | 64 µg/mL (≈ 111 µM) |  |
| C[C@H](CCC(=O)O)[C@H]1CC[C@H]2[C@@H]3[C@H](O)C[C@@H]4C[C@@H](NCCCNCCCCNCCCN)CC[C@]4(C)[C@H]3CC[C@]12C [drawing 62] |  |  | 32 µg/mL (≈ 55.5 µM) | 8 µg/mL (≈ 13.9 µM) | 256 µg/mL (≈ 444 µM) |  |
| CC(CCC(=O)O)[C@H]1CCC2C3C(CC[C@@]21C)[C@@]1(C)CC[C@H](NCCN)C[C@H]1C[C@H]3O (stereo partly drawn) [drawing 64] |  |  | 256 µg/mL (≈ 589 µM) | 128 µg/mL (≈ 294 µM) | 128 µg/mL (≈ 294 µM) |  |
| COC(=O)CCC(C)[C@H]1CCC2C3CC[C@@H]4C[C@H](NCCN)CC[C@]4(C)C3C[C@H](O)[C@@]21C (stereo partly drawn) [drawing 65] |  |  | 32 µg/mL (≈ 71.3 µM) | 8 µg/mL (≈ 17.8 µM) | 8 µg/mL (≈ 17.8 µM) |  |
| CC(CCC(=O)O)[C@H]1CCC2C3CC[C@@H]4C[C@H](NCCN)CC[C@]4(C)C3C[C@H](O)[C@@]21C (stereo partly drawn) [drawing 66] |  |  | 32 µg/mL (≈ 73.6 µM) | 16 to 32 µg/mL (≈ 36.8 to 73.6 µM) | 64 µg/mL (≈ 147 µM) |  |
| COC(=O)CCC(C)[C@H]1CCC2C3C[C@@H](O)[C@H]4C[C@H](NCCN)CC[C@]4(C)C3CC[C@@]21C (stereo partly drawn) [drawing 67] |  |  | 8 µg/mL (≈ 17.8 µM) | 16 µg/mL (≈ 35.7 µM) | 32 to 64 µg/mL (≈ 71.3 to 143 µM) |  |
| CC(CCC(=O)O)[C@H]1CCC2C3C[C@@H](O)[C@H]4C[C@@H](NCCN)CC[C@]4(C)C3CC[C@@]21C (stereo partly drawn) [drawing 69] |  |  | > 256 µg/mL | > 256 µg/mL | > 256 µg/mL |  |
| COC(=O)CCC(C)[C@H]1CCC2C3CC[C@@H]4C[C@H](NCCCNCCCCNCCCN)CC[C@]4(C)C3C[C@H](O)[C@@]21C (stereo partly drawn) [drawing 72] |  |  | 8 µg/mL (≈ 13.5 µM) | 2 µg/mL (≈ 3.38 µM) | 16 µg/mL (≈ 27.1 µM) |  |
| CC(CCC(=O)O)[C@H]1CCC2C3CC[C@@H]4C[C@H](NCCCNCCCCNCCCN)CC[C@]4(C)C3C[C@H](O)[C@@]21C (stereo partly drawn) [drawing 73] |  |  | 4 µg/mL (≈ 6.93 µM) | 4 µg/mL (≈ 6.93 µM) | 8 to 16 µg/mL (≈ 13.9 to 27.7 µM) |  |
| COC(=O)CCC(C)[C@H]1CCC2C3CC[C@H]4C[C@H](NCCCNCCCCNCCCN)CC[C@]4(C)C3CC[C@@]21C (stereo partly drawn) [drawing 74] |  |  | 2 µg/mL (≈ 3.48 µM) | 4 µg/mL (≈ 6.96 µM) | 32 µg/mL (≈ 55.7 µM) |  |
| COC(=O)CCC(C)[C@H]1CCC2C3CC[C@H]4C[C@@H](NCCCNCCCCNCCCN)CC[C@]4(C)C3CC[C@@]21C (stereo partly drawn) [drawing 75] |  |  | 2 µg/mL (≈ 3.48 µM) | 1 to 2 µg/mL (≈ 1.74 to 3.48 µM) | 32 µg/mL (≈ 55.7 µM) |  |
| COC(=O)CCC(C)[C@H]1CCC2C3C[C@@H](O)[C@H]4C[C@@H](NCCCNCCCCNCCCN)CC[C@]4(C)C3CC[C@@]21C (stereo partly drawn) [drawing 77] |  |  | 2 µg/mL (≈ 3.38 µM) | 2 µg/mL (≈ 3.38 µM) | 32 µg/mL (≈ 54.2 µM) |  |
| CC(C)CCCC(C)[C@H]1CCC2C3C(CC[C@@]21C)[C@@]1(C)CC[C@H](NCCCNCCCCN)C[C@@H]1C[C@H]3O (stereo partly drawn) [drawing 87] |  |  |  |  |  | 1.10 µg |
